Data as given in patent US6426349B1, “Substituted condensation products of N-benzyl-3-indenylacetamides with heterocyclic aldehydes for neoplasia” (Cell Pathway and the University of Arizona, priority 1997, dated 2002).
Counter-ions that a name gives are not always drawn.

Assays:
[1] = system: SW-480 colon adenocarcinoma cells; test: Apoptosis by DNA fragmentation (Cell Death Detection ELISA plus); format: cell-based, human; details: for DNA Fragmentation FS (100 μM): fold stimulation FS=ODmax/ODveh; for DNA Fragmentation FS (100 μM) / EC50: SW-480 cells, 48 hrs; for Apoptosis Level (Mean OD Value ± SD): DNA fragmentation, SW-480
Protocol: Apoptosis was also measured based on the amount of fragmented DNA contained in cell lysates. Briefly, SW-480 colon adenocarcinoma cells were plated in 96-well microtitre plates (“MTP”) at a density of 10 K cells/well in 180 μl and were incubated for 24 hrs. Cells were then treated with 20 μl aliquots of appropriately diluted compound, and allowed to incubate for an additional 48 hrs.
After the incubation, samples were prepared according to the following steps. The MTP was centrifuged (15 min., 1000 rpm) and the supernatant was carefully removed by fast inversion of the MTP. The cell pellets in each well were resuspended in 200 μl lysis buffer and incubated for 45 min. at room temperature to lyse the cells. The lysates were then centrifuged (15 min., 1000 rpm) and 20 μl aliquots of the supernatant (=cytoplasmic fraction) were transferred into the streptavidin coated MTP for analysis. Care was taken not to shake the lysed pellets in the MTP (=cell nucleii containing high molecular weight, unfragmented DNA). Samples were analyzed immediately, because storage at 4C or −20C reduces the ELISA-signals.
Samples were then processed according to a DNA fragmentation assay protocol, and dose-response curves were generated based on optical density readings. Quantification of DNA was done by a commercially available photometric enzyme-immunoassay manufactured by Mannheim-Boehringer under the name “Cell Death Detection ELISA^plus”. The assay is based on a quantitative sandwich-enzyme-immunoassay-principle using mouse monoclonal antibodies directed against DNA and histones, respectively. This allows the specific determination of mono and oligonucleosomes in the cytoplasmatic fraction of cell lysates. In brief, the assay procedure is as follows. The sample (cell-lysate, serum, culture-supematant etc.) is placed into a streptavidin-coated MTP. Subsequently, a mixture of anti-histone-biotin and anti-DNA-POD is followed by incubation for 2 hours. During the incubation period, the anti-histone antibody binds to the histone-component of the nucleosomes and simultaneously fixes the immunocomplex to the streptavidin-coated MTP via its biotinylation. Additionally, the anti-DNA-POD antibody reacts with the DNA component of the nucleosomes. After removal of unbound antibodies by a washing step, the amount of nucleosomes is quantified by the POD retained in the immunocomplex. POD is determined photometrically with ABTS® (2,2′-Azino-di[3-ethylbenzthiazolin-sulfonat])* as substrate.
Fold stimulation (FS=ODmax/ODveh), an indicator of apoptotic response, was determined for each compound tested. EC50 values were determined either specifically by data analysis software, or by estimates based on the effective concentration range of each compound (ECR=min. effective dose-min. dose to peak effect). These FS and EC50 values for the tested compounds are listed above in Table 4.
In addition, using the DNA fragmentation test above, a dose response for the compound of Example 1 was obtained.

[2] = system: HT-29 human colon carcinoma cells; test: Apoptosis by morphology (acridine orange/ethidium bromide fluorescent microscopy); format: cell-based; details: HT-29 cells
Protocol: Apoptosis was measured using an assay of cell death based on morphological characteristics of apoptotic cells (i.e., condensed chromatin). Drug preparation and cell culture conditions were the same as for the SRB assay described above, except that HT-29 human colon carcinoma cells were used. Confluent cultures were established in 12.5 cm^2 flasks by plating 0.5×10^6 cells/flask. The cultures were assayed for apoptosis by fluorescent microscopy following labeling with acridine orange and ethidium bromide. Floating and attached cells were collected by trypsinization and washed three times in PBS. One ml aliquots were centrifuged (3 g). The pellet was resuspended in 25 μl media and 1 μl of a dye mixture containing 100 μg/ml acridine orange and 100 μg/ml ethidium bromide prepared in PBS and mixed gently. Ten μl of the mixture was placed on a microscope slide and covered with a 22 mm^2 coverslip, was examined with 40x dry objectives under epillumination by filter combination.
An observer blinded in regard to the identity of the samples scored at least 100 cells per sample. Apoptotic cells were identified by nuclear condensation of chromatin stained by the acridine orange or ethidium bromide.

[3] = target: T1, purified cyclooxygenase Type I (Ovis aries, UniProt P05979); test: Cyclooxygenase (COX) inhibition, purified enzyme; format: biochemical; details: purified COX from ram seminal vesicles
T1 construct: The COX was purified from ram seminal vesicles; from tissue; host or cells: ram seminal vesicles
T1 sequence (P05979 25-600): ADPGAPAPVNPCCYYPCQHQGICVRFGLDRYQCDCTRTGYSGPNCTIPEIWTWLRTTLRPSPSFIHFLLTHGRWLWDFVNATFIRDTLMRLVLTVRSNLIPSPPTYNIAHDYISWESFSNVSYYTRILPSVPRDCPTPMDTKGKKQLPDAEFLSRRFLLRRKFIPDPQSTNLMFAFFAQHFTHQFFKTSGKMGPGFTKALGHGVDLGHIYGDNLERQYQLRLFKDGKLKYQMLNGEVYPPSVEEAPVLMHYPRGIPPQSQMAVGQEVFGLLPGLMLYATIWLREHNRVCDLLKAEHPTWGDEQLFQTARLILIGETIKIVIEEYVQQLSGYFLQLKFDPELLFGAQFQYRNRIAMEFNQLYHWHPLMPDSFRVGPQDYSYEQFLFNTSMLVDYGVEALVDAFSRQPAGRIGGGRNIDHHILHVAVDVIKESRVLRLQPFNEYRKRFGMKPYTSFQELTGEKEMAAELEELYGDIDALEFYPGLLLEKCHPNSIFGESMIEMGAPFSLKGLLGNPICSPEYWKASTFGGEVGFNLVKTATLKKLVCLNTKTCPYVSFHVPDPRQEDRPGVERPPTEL
Protocol: COX catalyzes the formation of prostaglandins and thromboxane by the oxidative metabolism of arachidonic acid. The compound of Example 1 of this invention, as well as a positive control, (sulindac sulfide) were evaluated to determine whether they inhibited purified cyclooxygenase Type I (see Table 3 below).
The compounds of this invention were evaluated for inhibitory effects on purified COX. The COX was purified from ram seminal vesicles, as described by Boopathy, R. and Balasubramanian, J., 239:371-377, 1988. COX activity was assayed as described by Evans, A. T., et al., “Actions of Cannabis Constituents on Enzymes Of Arachidonate Metabolism Anti-Inflammatory Potential,” Biochem. Pharmacol., 36:2035-2037, 1987. Briefly, purified COX was incubated with arachidonic acid (100 μM) for 2.0 min at 37° C. in the presence or absence of test compounds. The assay was terminated by the addition of TCA, and COX activity was determined by absorbance at 530 nm.

[4] = system: human colon carcinoma cell line, SW-480; test: Sulforhodamine B (SRB) tumor cell growth inhibition assay; format: cell-based; details: SW480, 144 h, SW-480 cell line, six days continuous exposure
Protocol: The compound of Example 1 was assayed for its growth inhibitory activity on the human colon carcinoma cell line, SW-480 obtained from ATCC (Rockville, Md.), to ascertain the degree of growth inhibition. Growth inhibition of this cell line is indicative of a benefit on precancerous lesions and neoplasms. The cell line and growth assay employed for such experiments are well characterized, and are used to evaluate the anti-neoplastic properties of NSAIDs. The assay is used by the United States National Cancer Institute in its screening program for new anti-cancer drugs.
Drug stock solutions were made in 100% DMSO and were then diluted with RPMI media for cell culture testing. All drug solutions were prepared fresh on the day of testing. The cultured cells were obtained at passage #99 and grown in RPMI media supplemented with 5% fetal calf serum, and 2 mM glutamine, 100 U/ml penicillin, […] streptomycin, and 0.25 μg/ml amphotericin. The cultures were maintained in a humidified atmosphere of 95% air and 5% CO2 at 37° C. […]
Tumor cell growth inhibition was assessed using the Sulforhodamine B (SRB) protein binding assay. […] The dye was then solubilized, and the optical density of the resulting solution was determined on a 96-well plate reader. […]
For each experiment, an IC50 value was determined and used for comparative purposes. […]

Which “DNA Fragmentation FS (100 μM)” value [1] does the source give for `CC1=C(CC(=O)NCc2ccccc2)c2cc(F)ccc2/C1=C\c1ccncc1` [Example 1, (Z)-5-Fluoro-2-Methyl-(4-Pyridinylidene)-3-(N-Benzyl)-Indenylacetamide] here?
Its value is 4.2.

What about the EC50 ([1]; Homo sapiens, SW480) of the same molecule?
Its EC50 is 29 µM.

And the “Apoptosis Level (Mean OD Value ± SD)” value ([1]; dose 0.5 μM)?
Its value is 0.186 ± 0.008.

And the “Apoptosis Level (Mean OD Value ± SD)” value ([1]; dose 1.0 μM)?
Its value is 0.207 ± 0.061.

What about the “Apoptosis Level (Mean OD Value ± SD)” value ([1]; dose 5.0 μM) of the same molecule?
The value was 0.208 ± 0.073.

What about the “Apoptosis Level (Mean OD Value ± SD)” value ([1]; dose 10 μM) of the same molecule?
The value was 0.296 ± 0.050.

And the “Apoptosis Level (Mean OD Value ± SD)” value ([1]; dose 50 μM)?
The value was 0.500 ± 0.048.

What about the “Apoptosis Level (Mean OD Value ± SD)” value ([1]; dose 100 μM) of the same molecule?
The value was 0.633 ± 0.053.

What about the “Apoptosis Level (Mean OD Value ± SD)” value ([1]; dose 500 μM) of the same molecule?
Its value is 0.659 ± 0.012.

What about the “Morphology % Apoptotic Cells (1 μM)” value [2] of the same molecule?
Its value is 88%.

What about the inhibition at 100 µM [3] of the same molecule?
Its inhibition at 100 µM is < 25%.

What about the IC50 [4] of the same molecule?
Its IC50 is 724 nM.

With `CC1=C(CC(=O)NCc2ccccc2)c2cc(F)ccc2/C1=C\c1cccnc1` [Example 2, (Z)-5-Fluoro-2-Methyl-(3-Pyridinylidene)-3-(N-Benzyl)-Indenylacetamide] as the molecule, how does the “DNA Fragmentation FS (100 μM)” value [1] read?
Its value is 5.4.

How did the “DNA Fragmentation FS (100 μM)” value [1] turn out when `CC1=C(CC(=O)NCc2ccccc2)c2cc(F)ccc2/C1=C\c1ccccn1` [Example 3, (Z)-5-Fluoro-2-Methyl-(2-Pyridinylidene)-3-(N-Benzyl)-Indenylacetamide] was run?
The value was 8.5.

Which “DNA Fragmentation FS (100 μM)” value [1] does the source give for `CC1=C(CC(=O)NCc2ccccc2)c2cc(F)ccc2/C1=C\c1ccnc2ccccc12` [Example 4, (Z)-5-Fluoro-2-Methyl-(4-Quinolinylidene)-3-(N-Benzyl)-Indenylacetamide] here?
The value was 3.9.

`CC1=C(CC(=O)NCc2ccccc2)c2cc(F)ccc2/C1=C\c1ccncc1` [Example 38, (Z)-5-Fluoro-2-Methyl-(4-Pyridylidene)-3-(N-Benzyl) Indenylacetamide Hydrochloride] was tested. Which EC50 [1] did it give?
The EC50 was 15 µM.
